21 compounds from patent publication US20260250262A1, “NEW COMPOUND AND PHARMACEUTICAL COMPOSITION COMPRISING SAME” (SAMJIN PHARMACEUTICAL CO., LTD., priority 2023, published 2026) can be followed below.

By IC50 is commonly meant the concentration that inhibits the measured activity by half.

T1 sequence (P43490 whole entry): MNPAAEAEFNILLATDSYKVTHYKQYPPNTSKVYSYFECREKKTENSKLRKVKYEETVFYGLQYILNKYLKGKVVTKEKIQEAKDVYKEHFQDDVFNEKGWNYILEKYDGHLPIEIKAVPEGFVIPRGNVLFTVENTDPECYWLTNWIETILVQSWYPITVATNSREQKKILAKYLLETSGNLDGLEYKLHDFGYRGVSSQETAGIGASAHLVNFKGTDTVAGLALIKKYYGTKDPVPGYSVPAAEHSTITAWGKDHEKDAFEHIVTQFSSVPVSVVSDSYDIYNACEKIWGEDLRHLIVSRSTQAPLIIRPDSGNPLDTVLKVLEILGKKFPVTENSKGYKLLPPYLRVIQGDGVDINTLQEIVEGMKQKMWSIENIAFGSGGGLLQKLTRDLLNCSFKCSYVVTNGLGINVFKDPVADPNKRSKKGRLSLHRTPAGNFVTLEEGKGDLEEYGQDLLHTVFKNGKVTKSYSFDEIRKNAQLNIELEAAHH

This assay concerns the target T1, Recombinant NAMPT protein (Homo sapiens, UniProt P43490).
T1 construct: purchased BPS bioscience #7176-1
Nature of the assay: NAMPT enzyme inhibition assay (BPS Bioscience NAMPT Inhibitor Screening Assay Kit). Type of assay: biochemical. Conditions: 30 min pre-incubation, 2 h at 30° C., fluorescence. As to the method: Recombinant NAMPT protein was added to each well of a black 96-well plate, and dilution buffer was added to a blank well instead of NAMPT protein. A 5× concentrated compound solution was added and pre-incubated at room temperature (approximately 22° C.) for 30 minutes before the start of the reaction so that the compound and protein might bind before the enzyme reaction. At this time, the concentration of NAMPT protein was adjusted and used according to the enzyme activity of each protein lot within the final concentration range of 4-10 ng/μl, and the test compound was serially diluted at a ratio of 1:3 from 1000 nM to 1 nM, and experiments were conducted with n=2 for about seven concentrations. […] The NAMPT enzyme activity (%) was calculated by subtracting the measurement value of the blank well without NAMPT protein from the measurement value of all wells, and then taking the measurement value of the control well without the compound as 100%.
Turning to `O=C(NCCc1cccnc1)Nc1ccc(-c2ccc(C(=O)N3CCC(F)(F)CC3)cc2)c(C#Cc2ccc(F)cc2)c1` [Compound 2, 1-(4′-(4,4-difluoropiperidine-1-carbonyl)-2-((4-fluorophenyl)ethynyl)-[1,1′-biphenyl]-4-yl)-3-(2-(pyridin-3-yl)ethyl)urea], the IC50 was below 500 nM.
Then `O=C(NCCn1ccnc1)Nc1ccc(-c2ccncc2)c(C#Cc2ccc(F)cc2)c1` [Compound 3, 1-(2-(1H-imidazol-1-yl)ethyl)-3-(3-((4-fluorophenyl)ethynyl)-4-(pyridin-4-yl)phenyl)urea], with 500 to 1000 nM; and `O=C(NCCc1cccc(O)c1)Nc1ccc(-c2ccncc2)c(C#Cc2ccc(F)cc2)c1` [Compound 5, 1-(3-((4-fluorophenyl)ethynyl)-4-(pyridin-4-yl)phenyl)-3-(3-hydroxyphenethyl)urea], with above 1000 nM.
With `O=C(NCCn1ccnc1[N+](=O)[O-])Nc1ccc(-c2ccncc2)c(C#Cc2ccc(F)cc2)c1` [Compound 8, 1-(3-((4-fluorophenyl)ethynyl)-4-(pyridin-4-yl)phenyl)-3-(2-(2-nitro-1H-imidazol-1-yl)ethyl)urea], the IC50 was above 1000 nM.
As to `O=C(NCCc1cccnc1)Nc1ccc(-c2cccc(N3CCOCC3)c2)c(C#Cc2ccc(F)cc2)c1` [Compound 9, 1-(2-((4-fluorophenyl)ethynyl)-3′-morpholino-[1,1′-biphenyl]-4-yl)-3-(2-(pyridin-3-yl)ethyl)urea], the half-maximal inhibitory concentration (IC50) was 500 to 1000 nM.
`Nc1ccc(CCNC(=O)Nc2ccc(-c3ccncc3)c(C#Cc3ccc(F)cc3)c2)cn1` [Compound 10]: the half-inhibitory concentration (IC50) was above 1000 nM.
In the case of `O=C(NCCc1ccc2ocnc2c1)Nc1ccc(-c2ccncc2)c(C#Cc2ccc(F)cc2)c1` [Compound 11], the IC50 was above 1000 nM.
For the compound `NC1CCN(C(=O)c2cccc(-c3ccc(NC(=O)NCCc4cccnc4)cc3C#Cc3ccc(C(=O)NCCN4CCCCC4)cc3)c2)C1` (stereo not drawn) [Compound 43], the IC50 is above 1000 nM.
With `Nc1cccc(C(=O)N2CCN(c3ccc(NC(=O)NCCc4cccnc4)cc3C#Cc3ccc(F)cc3)CC2)c1` [Compound 52], the IC50 is below 500 nM.
The result for `O=C(NCCc1cccnc1)Nc1ccc(-c2ccc3cnccc3c2)c(C#Cc2ccc(F)cc2)c1` [Compound 57] reads below 500 nM; that for `Cn1ccc(CS(=O)(=O)c2ccc(NC(=O)NCCc3cccnc3)cc2C#Cc2ccc(F)cc2)n1` [Compound 69], below 500 nM.
Regarding `O=C(NCCc1cccnc1)Nc1ccc(C(=O)Nc2ccccc2)c(C#Cc2ccc(C(=O)NCCN3CCCCC3)cc2)c1` [Compound 95], the IC50 was below 500 nM.
In the case of `O=C(NCCCc1cn[nH]c1)Nc1ccc(-c2ccncc2)c(C#Cc2ccc(F)cc2)c1` [Compound 110], the IC50 was below 500 nM.
In the case of `O=C(NCCc1cccnc1)Nc1ccc(N2CCNCC2)c(C#Cc2ccc(F)cc2)c1` [Compound 118], the IC50 was above 1000 nM.
Take `CCC(=O)Nc1ccc(NC(=O)NCCc2cccnc2)cc1C#Cc1ccc(F)cc1` [Compound 122]: the IC50 was below 500 nM.
The result for `O=C(NCCc1cccnc1)Nc1ccc(NC(=O)c2ccc(F)cc2)c(C#Cc2ccc(F)cc2)c1` [Compound 124] reads below 500 nM.
Then `Nc1cccc(C#Cc2cc(NC(=O)NCCc3cccnc3)ccc2-c2ccncc2)c1` [Compound 139], with below 500 nM; and `Nc1cccc(C(=O)Nc2ccc(NC(=O)NCCc3cccnc3)cc2C#Cc2ccc(F)cc2)c1` [Compound 177], with below 500 nM.
In the case of `O=C(NCCc1ccc([N+](=O)[O-])nc1)Nc1ccc(-c2ccncc2)c(C#Cc2ccc(F)cc2)c1` [Compound 182], the IC50 is above 1000 nM.
For `NC1CCCN(c2ccc(NC(=O)NCCc3cccnc3)cc2C#Cc2ccc(C(=O)NCCN3CCCCC3)cc2)C1` (stereo not drawn) [Compound 184], the IC50 lay in the range of 500 to 1000 nM.
In the case of `O=C(NCc1ccn2ccnc2c1)Nc1ccc(-c2ccc(N3CCNCC3)cc2)c(C#Cc2ccc(F)cc2)c1` [Compound 185], the IC50 is 500 to 1000 nM.
